Laboratory results: US20210017206A1, “PYRIDINONE AND PYRIMIDINONE PHOSPHATES AND BORONATES USEFUL AS ANTIBACTERIAL AGENTS” (Pfizer Inc., priority 2018, published 2021)
In brackets after ≈: the same amount, converted by molar mass.

Assays:
[1] = biological target: T1, Pseudomonas aeruginosa LpxC enzyme (Pseudomonas aeruginosa, UniProt P47205); test: IC50 assay, LpxC enzyme from P. aeruginosa (PA LpxC enzyme IC50); assay type: biochemical; details: P. aeruginosa LpxC 0.1 nM, 25° C., 1 hour, pH 8.0
T1 construct: made in house; host or cells: E. coli
T1 sequence (P47205 whole entry): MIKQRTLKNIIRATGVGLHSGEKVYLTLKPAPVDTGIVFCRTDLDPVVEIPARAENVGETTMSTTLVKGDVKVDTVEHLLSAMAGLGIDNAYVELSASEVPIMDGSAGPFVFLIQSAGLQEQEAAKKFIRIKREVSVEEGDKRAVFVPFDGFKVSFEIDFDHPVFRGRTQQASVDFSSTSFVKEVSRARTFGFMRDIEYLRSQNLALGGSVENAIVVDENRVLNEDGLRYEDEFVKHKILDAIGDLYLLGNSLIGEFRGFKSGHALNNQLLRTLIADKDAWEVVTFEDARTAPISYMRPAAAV
Description: In order to assess the compounds biological activity, selected in vitro assays were conducted on selected compounds. One of the assays measured the compounds ability to disrupt the synthesis of lipopolysaccharide, LPS, which is a component of the outer membrane of Gram-negative bacteria. Disruption of this synthesis is lethal to the bacteria. The assay determined the compound's ability to inhibit LpxC, which is the first enzyme in the biosynthetic pathway for LPS (measured as IC50). Additionally, MICs (minimal inhibitory concentrations) were determined for several bacteria. The specific protocols are described below:
A) IC50 Assay, LpxC Enzyme from P. aeruginosa (Labeled as PA LpxC Enzyme IC50):
At the end of 1 hour, 5 ul of 1 N HCl was added to stop the enzyme reaction, the plates were centrifuged, and then processed with the BioTrove Rapidfire HTMS Mass Spectrometry System. A no-enzyme control was used in calculating the IC50 values from the percent conversion values.

[2] = test system: Acinetobacter baumannii/haemolyticus, multidrug-resistant clinical isolate (AB-3167); test: MIC determination (CLSI), AB-3167; assay type: cell-based; details: lower of duplicate values
Description: (§1) B) MIC determinations: The in vitro antibacterial activity of parent compounds of those described in the Examples was evaluated by minimum inhibitory concentration (MIC) testing according to Clinical and Laboratory Standards Institute (CLSI). See: Clinical and Laboratory Standards Institute. Methods for Dilution Antimicrobial Susceptibility Tests for Bacteria that Grow Aerobically; Approved Standard-Eighth Edition. CLSI document M7-A8 [ISBN 1-56238-689-1]. Clinical and Laboratory Standards Institute, 940 West Valley Road, Suite 1400, Wayne, Pa. 19087-1898 USA, 2006; also Clinical and Laboratory Standards Institute. Performance Standards for Antimicrobial Susceptibility Testing; Twentieth Informational Supplement. CLSI document M100-S20 [ISBN1-56238-716-2]. Clinical and Laboratory Standards Institute.
(§2) The MIC determination is a standard laboratory method for evaluating the antibacterial activity of a compound. The MIC represents the lowest drug concentration that inhibits visible growth of bacteria following overnight incubation. […] Typically, the drug concentration range is broken down into 2-fold increments (e.g. 0.06 μg/mL, 0.12 μg/mL. 0.25 μg/mL, 0.50 μg/mL, 1.0 μg/mL, etc.) and the various drug concentrations are all individually incubated overnight with approximately the same number of bacteria. The MIC is then determined by visually inspecting the drug effect at each concentration, and identifying the lowest drug concentration that has inhibited bacterial growth as compared to the drug free control. Typically, bacteria continue to grow at drug concentrations lower than the MIC and don't grow at concentrations at and above the MIC.
(§3) The MIC values described in Table 2 below were derived from assays wherein each test compound was evaluated in duplicate. In cases where the duplicate values varied by 0-2-fold, the lower of the two values was reported below. Generally speaking, if the duplicate values varied by more than 2-fold, the assay was considered non-valid and was repeated until the variation between duplicate runs was <2-fold. In line with the CLSI guidelines referred to above, both control organisms and reference compounds were utilized in each MIC assay to provide proper quality control. MIC values generated with these control organisms and reference compounds were required to fall within a defined range for the assay to be considered valid and be included herein. Those skilled in the art will recognize that MIC values can and do vary from experiment to experiment. […] While a single MIC is reported for each compound and each microorganism, the reader should not conclude that each compound was only tested once. Several of the compounds were subjected to multiple tests. The data reported in Table 2 is reflective of the compounds relative activity and different MICs may have been generated on these occasions in line with the guidelines described above.
(§4) The following bacterial strains were used in these MIC determinations:
2) Acinetobacter baumannii/haemolyticus: Multidrug-resistant clinical isolate labeled as AB-3167 in Table 2;

[3] = test system: Escherichia coli EC-1: VOGEL, mouse virulent; test: MIC determination (CLSI), EC-1; assay type: cell-based; details: read-out: EC-1 MIC
Description: as §1, §2, §3, §4
3) Escherichia coli EC-1: VOGEL, mouse virulent labeled as EC-1 in Table 2;

[4] = test system: Pseudomonas aeruginosa UI-18, wild-type (PA-7); test: MIC determination (CLSI), PA-7; assay type: cell-based; details: lower of duplicate values
Description: as §1, §2, §3, §4
1) Pseudomonas aeruginosa UI-18: Wild-type, labeled as PA-7 in Table 2;

| SMILES | IC50 [1] [nM] | MIC [2] [µg/mL] | MIC [3] [µg/mL] | MIC [4] [µg/mL] |
| --- | --- | --- | --- | --- |
| COc1ccc(-c2ccn(CC[C@](C)(C(=O)NO)S(C)(=O)=O)c(=O)c2)c(F)c1F [(2R)-4-[4-(2,3-difluoro-4-methoxyphenyl)-2-oxopyridin-1(2H)-yl]-N-hydroxy-2-methyl-2-(methylsulfonyl)butanamide] | 0.166 | > 64 | 0.015 (≈ 0.0348 µM) | 1 (≈ 2.32 µM) |
| C[C@@](CCn1ccc(-c2ccc(-c3nccs3)cc2)cc1=O)(C(=O)NO)S(C)(=O)=O [(2R)-N-hydroxy-2-methyl-2-(methylsulfonyl)-4-{2-oxo-4-[4-(1,3-thiazol-2-yl)phenyl]pyridin-1(2H)-yl}butanamide] | 0.176 | > 64 | 0.06 (≈ 0.134 µM) | 0.5 (≈ 1.12 µM) |
| C[C@@](CCn1cnc(-c2ccc(-n3nccn3)cc2)cc1=O)(C(=O)NO)S(C)(=O)=O [(2R)-N-hydroxy-2-methyl-2-(methylsulfonyl)-4-{6-oxo-4-[4-(2H-1,2,3-triazol-2-yl)phenyl]pyrimidin-1(6H)-yl}butanamide] | – | > 64 | 0.06 (≈ 0.139 µM) | 0.5 (≈ 1.16 µM) |
| COc1cnn(-c2ccc(-c3ccn(CC[C@](C)(C(=O)NO)S(C)(=O)=O)c(=O)c3)cc2)n1 [(2R)-N-hydroxy-4-{4-[4-(4-methoxy-2H-1,2,3-triazol-2-yl)phenyl]-2-oxopyridin-1(2H)-yl}-2-methyl-2-(methylsulfonyl)butanamide] | 0.125 | > 64 | 0.03 (≈ 0.065 µM) | 0.5 (≈ 1.08 µM) |
| C[C@@](CCn1ccc(-c2ccc(-n3nccn3)cc2)cc1=O)(C(=O)NO)S(C)(=O)=O [(R)-4-(4-(4-(2H-1,2,3-Triazol-2-yl)phenyl)-2-oxopyridin-1(2H)-yl)-N-hydroxy-2-methyl-2-(methylsulfonyl)butanamide] | – | > 64 | 0.06 (≈ 0.139 µM) | 0.5 (≈ 1.16 µM) |
